Patent EP4458352A1, “EICOSAPENTAENOIC ACID ESTER DERIVATIVES FOR THE TREATMENT OF OBESITY” (Technische Universität Dresden, priority 2023, dated 2024)

What was measured:
[1] = test system: primary adrenocortical cells; assay: Seahorse OCR measurement in primary adrenocortical cells treated with SC-26196; format: cell-based, WT C57BL/6J mice; details: SC-26196 10 µM, 18 h vs DMSO; n=4
Description: Primary adrenocortical cells were plated in 0.2 % gelatin-precoated XF96 cell culture microplate (Agilent) (8*10^4 cells/well) and treated for 18 h with DMSO or SC-26196 (10 µM). OCR was measured with a Seahorse XF96 Analyzer (Agilent Technologies). The experimental medium used was XF Base Medium supplemented with glucose (10 mM), pyruvate (1 mM) and glutamine (2 mM).

[2] = test system: NCI-H295R cells; assay: Cholesterol and cholesteryl ester content (LC-MS/MS) of mitochondrial and lipid droplet fractions of NCI-H295R cells treated with SC-26196; format: cell-based, Human
Description: NCI-H295R cells (obtained from ATCC Cat# CRL-2128) were maintained in DMEM/F12 medium supplemented with 2.5 % Nu-Serum type I (Corning), 1 % Insulin Transferrin Selenium (ITS; Gibco), 50 U/mL penicillin and 50 µg/mL streptomycin. They were treated for 18 h with 10 µM SC-26196 or DMSO. […]
Cells were trypsinized and pelleted by centrifugation (500xg, 5 min, 4 °C). The cells were gently resuspended in homogenization buffer (200 mM mannitol, 50 mM sucrose, 10 mM KCI, […] 25 mM HEPES, pH 7.4, 1 µM aprotinin, 10 µM leupeptin, 20 µM PMSF) and homogenized on ice with 20 strokes of tight Dounce homogenizer. The samples were then centrifuged (800xg, 10 min, 4 °C) to pellet the nuclei. […]
Fractions 10-12 (SDHB-positive) and 4-5 (HSL-positive) were considered as mitochondrial and lipid droplet fractions, respectively. Protein concentration was measured in the mitochondrial and lipid droplet pools with the BCA Protein Assay Kit (Thermo Fisher) and fractions were analyzed for cholesterol and CE concentrations.
For quantification of cholesterol and cholesteryl esters, equal volumes of mitochondria fractions (180 µL) were combined, cholesterol-2,3,4-^13C (5 nmol, […]) and SPLASH®Lipidomix® (3 µL, Avanti Polar Lipids Inc) spiked, and samples incubated for 15 min on ice. […]

[3] = test system: adrenal glands of mice fed a HFD; assay: FFA measurement (HPLC-MS) in adrenal glands of HFD mice with or without SC-26196; format: in vivo, WT C57BL/6J mice; details: HFD with vs without SC-26196; n=8-10 mice per group
Description: Six weeks-old male WT C57BL/6J mice were fed for 20 weeks a LFD (D12450B, Research Diets, NJ, USA) or a HFD (D12492, Research Diets, NJ, USA). In some experiments, WT C57BL/6J mice were fed for 8 weeks a HFD and for another 8 weeks a HFD supplemented with SC-26196 (Biorbyt Ltd). SC-26196 was mixed in the HFD at a concentration of 625 mg/kg of diet corresponding to approx. 100 mg/kg of animal weight. In other experiments WT mice were fed for 10 weeks a HFD and for another 10 weeks a HFD supplemented with icosapent ethyl (Vascepa). The content of Vascepa capsules was mixed by Research Diets with the diet at a concentration of 1.125 g/kg icosapent ethyl (corresponding to approx. 180 mg/kg of animal weight). Mice were weighed every week. Glucose and insulin tolerance tests were performed as previously described (20, 21). Three to five mg of hair (2-3 mm close to the skin on the back of the mice) were cut while gently holding the mice without anaesthesia.
Frozen adrenal glands were homogenized in 200 µL PBS-buffer. Lipids were extracted from adrenal lysates or supernatants in chloroform/methanol (Folch's protocol). The extract was evaporated to dryness under stream of nitrogen at 40 °C. The residue was dissolved in 100 µL ethanol. For FFA 50 µL were used. […] The quantification was performed with individual calibration curves using deuterated standards (Cayman Chemical, Ann Arbor, MI).

SMILES: N#CC(CCCN1CCN(/N=C/c2cccnc2)CC1)(c1ccccc1)c1ccccc1 [SC-26196]
- oxygen consumption rate (OCR) [1]: decreased
- mitochondrial cholesterol levels upon forskolin stimulation ([2]; SC-26196 18 h vs DMSO, forskolin (FSK, 1 µM) for 30 min, SDHB positive fractions): strong increase in mitochondrial cholesterol levels in control- but not SC-26196-treated cells
- cholesterol and CE in the lipid droplet (HSL positive) fractions ([2]; SC-26196-treated cells): accumulated
- free PUFA, including ARA, levels in the adrenal glands [3]: reduced
